Key:
[1] = Pharmacokinetics after oral gavage or intravenous injection; assay type: in vivo, CD1 mice; details: after a single oral dose
Description: Cohorts of N=12 athymic mice bearing human PCa PC3-M cell orthotopic implants (a), or of N=5 non-tumor bearing athymic mice (b), were treated with KBU2046 incorporated into chow, and resultant lung metastasis (a) or plasma KBU2046 concentration (b) measured. Values are the mean±SEM. The relationship between dose and metastasis was evaluated by two-sided ANOVA (a). FIG. 2c a comprehensive characterization of KBU2046 pharmacokinetics. CD1 mice were dosed with 100 mg KBU2046/kg via oral gavage or intravenous injection (iv), and blood collected at the indicated time points (data from mice dosed at 25 mg/kg are in FIG. 12, and corroborate 100 mg/kg findings). For each route and time point, N=3 mice were sampled. Individual data points are the resultant plasma concentrations from individual mice, and are the mean of N=2 measurements. The dotted horizontal line denotes a concentration of 24 nM, which was the concentration of KBU2046 measured in the blood of mice whose metastasis were suppressed by 92% (a-b). […]
KBU2046 Quantification and Pharmacokinetics. […]
Plasma KBU2046 concentrations were measured in duplicate by liquid chromatography-tandem mass spectrometry after sample preparation by solid-phase extraction. […] The mass-to-charge ratios of the precursor-to-product ion reactions monitored were 243.5→125.1 for KBU2046 and 257.0→165.0 for the internal standard. […]

CDC37 = target: T1, CDC37 (Homo sapiens, UniProt Q16543); test: Biophysical binding assays and DARTS, isolated CDC37; details: ITC, thermal shift, biolayer interferometry, dynamic light scattering, DARTS
T1 construct: made in house; host or cells: BL-21 DE-3 E. coli, pET15b
T1 sequence (Q16543 whole entry): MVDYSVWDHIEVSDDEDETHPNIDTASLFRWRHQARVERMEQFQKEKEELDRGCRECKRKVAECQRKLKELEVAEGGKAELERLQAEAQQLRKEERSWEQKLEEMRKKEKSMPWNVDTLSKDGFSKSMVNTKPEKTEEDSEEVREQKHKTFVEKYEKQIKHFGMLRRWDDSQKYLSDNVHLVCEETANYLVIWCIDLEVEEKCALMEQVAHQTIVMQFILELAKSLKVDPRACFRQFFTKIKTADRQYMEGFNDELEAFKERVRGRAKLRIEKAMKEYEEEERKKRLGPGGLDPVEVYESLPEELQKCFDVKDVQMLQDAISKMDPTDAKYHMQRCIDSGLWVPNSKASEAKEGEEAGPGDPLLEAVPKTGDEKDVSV
Description: Studies used purified recombinant HSP90β or CDC37. […] For DARTS assay, HSP90β or CDC37 were individually pre-incubated with KBU2046, thermolysin added, and reaction products were separated by SDS PAGE and visualized by silver stain (depicted above). NTco—no thermolysin control. However, when the DARTS assay was conducted with both HSP90β and CDC37 present, KBU2046 protected both proteins from degradation in a concentration-dependent manner (see, FIG. 5a).
DARTS provides a sensitive measure of ligand-induced changes in protein structure and dynamics by measuring the ability of a ligand to protect its target from protease digestion (Lomenick, B. et al., Proc Natl Acad Sci USA 106, 21984-9 (2009)). […] The intensity of the CDC37 band increased, that of the HSP90β degradation product decreased, and both effects were statistically significant, concentration-dependent and were evident at 10 nM. […] Further, these findings also indicate that KBU2046 is not acting as a classical HSP90 inhibitor.
Biophysical and Biochemical Binding Assays. […]

In the case of `O=C1c2ccccc2OCC1c1ccc(F)cc1` (racemic) [KBU2046, (±)-3(4-fluorophenyl)chroman-4-one], the “maintenance of plasma concentrations >24 nM” value [1] is reported as 9.3 h and the “binding to CDC37” value (CDC37) is reported as “no evidence of KBU2046 binding”.
